Data set [1] is described as follows: Ex vivo everted gut sac model. Type of data set: in vitro ADME. To be noted: rat duodenum, within 60 min, CBS 200 μM, pH 7.4.
The conditions of data set [2]: cited from earlier work.
For data set [3] the following is noted: cited from earlier work. The source holds these as a separate data set.
Data set [4] has as its system Caco-2 cell monolayer. To be noted: CBS 150 μM, without or with 10NAC 1.5 mM.
For data set [5] the following is noted: SD rats.
The conditions of data set [6]: pH 9.2, with NAC.
Data set [7] has as its target ACE2 (Homo sapiens, UniProt Q9BYF1). The data set can be described thus: ACE2 activity inhibition assay. Type of data set: biochemical.
In data set [8] the test system is SARS-CoV-2. To be noted: read-out: EC50, SARS-CoV-2; cited from earlier work.
The subject of data set [9] is SARS-CoV-2. Type of data set: cell-based. To be noted: CBS 1000 μM, NAC 1000 μM, CBS 1000 μM + 3NAC 3000 μM, non-treated 64.5%.
Data set [10] relates to SARS-CoV-2. The format is in vivo, golden Syrian hamster.
Data set [11] in a line: Blood bismuth concentration after oral administration in mice. The format is in vivo. To be noted: Balb/c mice, oral CBS 150 mg kg^-1 (NAC 180 or 610 mg kg^-1).
In data set [12] the test system is SARS-CoV-2. The experiment in a line: Viral load reduction assay, SARS-CoV-2 in Vero E6 cells. The format is cell-based. To be noted: Vero E6, up to 2000 μM.
The target of data set [13] is SARS-CoV-2 M^pro (Severe acute respiratory syndrome coronavirus 2, UniProt P0DTD1). The format is biochemical. To be noted: at comparable concentrations.
For data set [14], the target named is SARS-CoV-2 PL^pro (Severe acute respiratory syndrome coronavirus 2, UniProt P0DTD1). The format is biochemical. To be noted: at comparable concentrations.
The mark [15] stands for this setting: single oral dose CBS 150 mg/kg, NAC 610 mg/kg, n = 5.

For orientation: EC50 means the concentration needed to bring the measured effect to its halfway point.

Read-outs that look alike come from different tables or passages of the source. Bounds are passed on as bounds.

Sequence of ACE2 (Q9BYF1 18-805): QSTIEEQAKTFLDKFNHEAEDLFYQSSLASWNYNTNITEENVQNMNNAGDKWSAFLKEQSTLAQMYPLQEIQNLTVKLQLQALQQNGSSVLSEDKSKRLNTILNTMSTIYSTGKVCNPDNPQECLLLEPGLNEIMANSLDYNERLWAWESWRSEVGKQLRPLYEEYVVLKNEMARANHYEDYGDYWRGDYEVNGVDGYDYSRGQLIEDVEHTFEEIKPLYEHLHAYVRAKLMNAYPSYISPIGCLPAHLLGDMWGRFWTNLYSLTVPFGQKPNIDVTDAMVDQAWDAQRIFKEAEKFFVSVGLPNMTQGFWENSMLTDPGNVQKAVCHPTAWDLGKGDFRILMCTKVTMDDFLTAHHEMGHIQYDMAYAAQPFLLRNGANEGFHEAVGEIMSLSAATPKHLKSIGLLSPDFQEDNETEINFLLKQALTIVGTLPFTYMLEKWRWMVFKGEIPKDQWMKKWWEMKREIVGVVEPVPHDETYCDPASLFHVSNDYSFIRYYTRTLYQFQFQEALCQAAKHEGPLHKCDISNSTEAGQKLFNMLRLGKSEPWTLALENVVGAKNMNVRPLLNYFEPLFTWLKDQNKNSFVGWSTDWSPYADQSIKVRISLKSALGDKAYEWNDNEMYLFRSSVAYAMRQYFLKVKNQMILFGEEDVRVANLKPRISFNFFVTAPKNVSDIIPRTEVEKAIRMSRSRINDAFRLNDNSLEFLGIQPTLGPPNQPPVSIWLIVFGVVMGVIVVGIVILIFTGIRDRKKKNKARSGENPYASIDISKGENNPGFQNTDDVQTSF

Consider colloidal bismuth subcitrate [CBS], for which the “cumulative bismuth permeated, everted sac model” value in data set [1] is 14.68(±4.12) ng cm^−2. The “absorption of bismuth in the rat small intestine” value in data set [2] is “lower than 1%”. The values for the solubility in water result in data set [3] (pH 3) and in [3] (pH 7) were “about 1 mg mL^−1” and above 70 mg/mL, respectively. In addition, the “cellular accumulation of bismuth in Caco-2 monolayer” value in data set [4] is 0.33(±0.02) %. Further, the “apparent permeability coefficient (Papp) through Caco-2 monolayer” value in data set [4] (pH 7.4) is given as 1.73(±0.02) × 10^−7 cm s^−1. Also, the “bismuth accumulation in the kidney” value in data set [5] (24 hour after oral dose) was 6839.76(±1652.30) ng per tissue. In data set [5] (24 hour after oral dose), the “bismuth accumulation in the lung” value is recorded as 552.15(±104.97) ng per tissue. Further, the “first peak value of blood bismuth level” value in data set [5] (oral CBS 150 mg kg^-1, at around 0.5 h) came to 277.69 µg/L. In [5] (setting [15]), the AUC0→12 h was 1316(±474.00) h μg L^−1. Further, the “Cmax (blood bismuth)” value in data set [5] (setting [15]) is 447.06(±132.39) μg L^−1. Besides, the “hydrolysis of CBS at pH 9.2 in the presence of NAC” value in [6] is given as “prevent hydrolysis”. For the same molecule, the “inhibition of ACE2 activity” value in data set [7] was “barely displayed anti-ACE2 potency”. The “cumulative permeated bismuth, PAMPA” value (iso-pH 1.2, without NAC) amounted to 16.95 ng cm^−2. In data set [8], the EC50 was 4.6 µM. The “viral NP antigen in infected Vero E6 cells” value in [9] was 37.25%. The “SARS-CoV-2-NP antigen signal in alveolar tissue of hamster lungs” value in [10] (hamster, in vivo, po) is recorded as 68.00(±6.08) NP^+ cells per view. The “adverse clinical signs and symptoms of infected hamsters” value in data set [10] (oral treatment, end of experimental period) is given as “mildly mitigated”. Further, the blood bismuth concentration in [11] (0.5 hour) is 225.75(±86.05) μg L^−1; in data set [11] (1 hour) it was 87.27(±21.46) μg L^−1.
As for `O=[N+]([O-])[O-].O=[N+]([O-])[O-].O=[N+]([O-])[O-].O=[N+]([O-])[O-].[Bi+3].[Bi+3].[Bi+3].[Bi+3].[Bi+3].[O-2].[OH-].[OH-].[OH-].[OH-].[OH-].[OH-].[OH-].[OH-].[OH-]` [BSN, bismuth subnitrate], the “absorption of bismuth in the rat small intestine” value in data set [2] was “lower than 1%”.
Turning to `CC(=O)N[C@@H](CS)C(=O)O` [NAC, N-acetyl-L-cysteine], in [12], the “anti-SARS-CoV-2 activity of NAC alone, virus copies in supernatant” value is listed as “negligible anti-SARS-CoV-2 activity”. Further, the “inhibitory activity on SARS-CoV-2 M^pro” value in data set [13] was “negligible inhibitory activity”. Further, the “viral NP antigen in infected Vero E6 cells” value in data set [9] worked out at 59.75%. The “inhibitory activity on SARS-CoV-2 PL^pro” value in data set [14] is on record as “negligible inhibitory activity”. In data set [10] (hamster, in vivo, po), the “SARS-CoV-2-NP antigen signal in alveolar tissue of hamster lungs” value was 85.67(±11.59) NP^+ cells per view and the “lung pathology” value was “partially relieve lung pathology”. Also, the “lung viral load versus vehicle group” value in [10] (oral, CBS 300 mg kg^-1 or NAC 370 mg kg^-1, day -2 to 1, […]) is reported as “no statistically significant difference”.
For the molecule `CNC(=C[N+](=O)[O-])NCCSCc1ccc(CN(C)C)o1.O=C([O-])CC(O)(CC(=O)[O-])C(=O)[O-].[Bi+3]` [RBC, ranitidine bismuth citrate], the “cumulative permeated bismuth, PAMPA” value runs as follows: (iso-pH 1.2, in the presence of 10 mol eq. NAC) 19.77 ng cm^−2; (iso-pH 1.2, without NAC) 15.24 ng cm^−2.

The record behind these values is paper PMC8864717 (Chemical Science, 2021).
